Columns and labels:
[1] = test system: oral ulcer induced by acetic acid in rats; experiment: Acetic acid-induced oral ulcer model in rats (body weight, food intake, ulcer diameter); format: in vivo, SD rats; conditions: 0.3 mg/kg intraperitoneal once a day
Description: Rats were anesthetized by intraperitoneal injection of 10% chloral hydrate solution. After anesthesia, 3 mm×3 mm filter paper impregnated with 100% glacial acetic acid was clung to the right buccal mucosa of rats for 45 s. After cauterization for 45 s, a round or oval white lesion of the buccal mucosa in this area was observed, indicating successful modeling.
All animals with successful modeling were randomly divided into six groups according to the ulcer area: (1) model group, 14 rats; (2) Xilei powder (15 mg/kg) group, 12 rats; (3) dexamethasone (0.3 mg/kg) group, 13 rats; (4) anemoside B4 high dose (about 60 mg/kg*3, i.e. 14 mg/suppository, one suppository/time, 3 times/day) group, 14 rats; (5) anemoside B4 medium dose (about 30 mg/kg*3, i.e. 7 mg/suppository, one suppository/time, 3 times/day) group, 14 rats; (6) anemoside B4 low dose (about 15 mg/kg*3, i.e. 3.5 mg/suppository, one suppository/time, 3 times/day) group, 14 rats; and 6 rats were included in the normal group.
24 h after modeling, drug was administrated for 3 successive days, including: local administration in Xilei powder group, once a day; intraperitoneal injection in dexamethasone group, once a day; rectal administration in anemoside B4 group, 3 times a day, and administration of blank suppository in model group, 3 times a day.
(1) General observation: daily food intake per cage was measured from the 2nd day after modeling, and animal weight was measured every 2 days. (2) Measurement of ulcer surface diameter: on the 2nd, 4th and 5th day after modeling, the diameter of ulcer surface was measured with a vernier caliper and recorded.

[2] = test system: oral ulcer induced by paclitaxel in rats; experiment: Paclitaxel-induced oral ulcer model in rats (food intake, ulcer diameter); format: in vivo, SD rats; conditions: intraperitoneal once a day for 5 days
Procedure: Rats were anesthetized by intraperitoneal injection of 10% chloral hydrate solution. After anesthesia, the oral ulcer model induced by chemotherapeutic drugs was established by injecting 50 μl of 6 mg/ml paclitaxel injection into the right buccal mucosa of rats.
All animals with successful modeling were randomly divided into model group, (7 rats), anemoside B4 high dose (about 60 mg/kg*2) group (7 rats), and normal group (6 rats).
24 h after modeling, in anemoside B4 group, rectal administration was performed, 1 suppository/time, twice a day, for 5 successive days; in dexamethasone group, intraperitoneal administration was performed, once a day, for 5 successive days; and in model group, blank suppository was given.
(1) General observation: On the day of modeling, rats were fasted but free access to water for 12 hours, while the diet was given quantitatively on the second day after modeling, and the food intake of rats in each cage was measured daily from the third day after modeling (the second day after administration). (2) Measurement of ulcer surface diameter: from the 2nd day after modeling, the diameter of ulcer surface was measured with a vernier caliper and recorded for 7 successive days.

## C[C@@H]1C[C@H]2[C@@H]3CCC4=CC(=O)C=C[C@]4(C)[C@@]3(F)[C@@H](O)C[C@]2(C)[C@@]1(O)C(=O)CO [Dexamethasone]
[1]; the 2nd day after modeling
  Body weight: 230 + 8.3 g
  Diameter of oral ulcer: 4.64 ± 0.38 mm
[1]; the 3rd day after modeling
  Food intake (g)/rat: 13.4 ± 3.35 g
[1]; the 4th day after modeling
  Body weight: 216 + 9.2 g
  Diameter of oral ulcer: 3.16 ± 0.18 mm
  Food intake (g)/rat: 8.2 ± 2.39 g
[1]; the 5th day after modeling
  Diameter of oral ulcer: 2.78 ± 0.26 mm
  Food intake (g)/rat: 12.1 ± 4.70 g
[1]; the 6th day after modeling
  Body weight: 213 + 13.7 g
[2]; the 2nd day after modeling
  Diameter of oral ulcers: 3.93 ± 0.48 mm
[2]; the 3rd day after modeling
  Diameter of oral ulcers: 4.00 ± 0.40 mm
  Food intake/rat: 13.78 ± 3.83 g
[2]; the 4th day after modeling
  Diameter of oral ulcers: 3.88 ± 0.58 mm
  Food intake/rat: 10.61 ± 2.48 g
[2]; the 5th day after modeling
  Diameter of oral ulcers: 3.50 ± 0.87 mm
  Food intake/rat: 13.91 ± 1.92 g
[2]; the 6th day after modeling
  Diameter of oral ulcers: 3.26 ± 0.84 mm
  Food intake/rat: 19.84 ± 1.14 g
[2]; the 7th day after modeling
  Diameter of oral ulcers: 2.85 ± 0.81 mm
  Food intake/rat: 18.79 ± 0.56 g

From patent US20230102973A1, “Medical Use of Anemoside B4 in the Treatment of Oral Ulcers” (priority 2020, published 2023)
